Read-outs that look alike come from different tables or passages of the source.
Experiments:
HepG2 = test: MTS cytotoxicity assay, HepG2; assay type: cell-based
Method: (§1) Cultivation of the cancer cell lines MCF-7, Hep3B, HepG2, and Caco-2 HeLa was conducted in RPMI 1640 medium, whereas LX-2, B16-F1, and HEK-293T cells were grown in DMEM medium. These cells were incubated at 37 °C in a 5% CO2 atmosphere within a humid setting. In a 96-well plate, 1000 cells were seeded in each well. Following a 24 h incubation, they were exposed to various concentrations of Ia-IIe compounds (300, 100, 50, and 10 µM) for 72 h. The Cell-Tilter 96® (Promega Corporation, Madison, WI, USA) Aqueous One Solution Cell Proliferation (MTS) bioassay was utilized to determine the cell viability post-culture. For this assay, 90 µL of medium and 10 µL of MTS solution were added to every well, and the plates were then placed in a 37 °C environment for 2 to 4 h. The absorbance was subsequently assessed at a wavelength of 490 nm using a UV–Vis spectrophotometer.

Hep3B = test: MTS cytotoxicity assay, Hep3B; assay type: cell-based; settings: 72 h
Method: as §1

MCF-7 = test: MTS cytotoxicity assay, MCF-7; assay type: cell-based
Method: as §1

HeLa = test: MTS cytotoxicity assay, HeLa; assay type: cell-based; settings: 72 h
Method: as §1

Caco-2 = test: MTS cytotoxicity assay, Caco-2; assay type: cell-based
Method: as §1

LX-2 = test: MTS cytotoxicity assay, LX-2; assay type: cell-based
Method: as §1

Hek293t normal cell line = test: MTS cytotoxicity assay, Hek293t normal cell line; assay type: cell-based; settings: 72 h
Method: as §1

α-amylase [1] = target: T1, α-amylase (Homo sapiens, UniProt P04746); settings: control compound IIe; cited from earlier work
T1 sequence (P04746 16-511): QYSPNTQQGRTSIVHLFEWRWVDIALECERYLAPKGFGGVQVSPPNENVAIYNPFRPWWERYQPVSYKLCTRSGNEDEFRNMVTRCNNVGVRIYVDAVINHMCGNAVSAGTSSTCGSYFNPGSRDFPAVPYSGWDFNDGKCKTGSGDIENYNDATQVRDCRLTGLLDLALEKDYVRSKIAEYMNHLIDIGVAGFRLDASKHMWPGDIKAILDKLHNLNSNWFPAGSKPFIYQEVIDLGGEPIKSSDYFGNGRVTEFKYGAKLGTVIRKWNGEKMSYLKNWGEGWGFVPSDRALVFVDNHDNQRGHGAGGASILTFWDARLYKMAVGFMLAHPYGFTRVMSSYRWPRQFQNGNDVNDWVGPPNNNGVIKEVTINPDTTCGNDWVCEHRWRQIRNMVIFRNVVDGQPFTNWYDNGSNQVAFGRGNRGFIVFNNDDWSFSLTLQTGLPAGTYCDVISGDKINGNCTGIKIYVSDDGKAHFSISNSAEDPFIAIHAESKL

α-amylase [2] = target: T1, α-amylase; settings: cited from earlier work
[3] = system: streptozotocin-induced diabetic mice; test: In vivo hypoglycemic effect in STZ-induced diabetic mice; settings: five daily i.p. doses of 10 mg/kg, fasting, 252.2 mg/dL before treatment, untreated diabetes group 274.25 mg/dL
Text: The mice-related investigations were meticulously conducted, adhering strictly to the protocols outlined by the Association for Assessment and Accreditation of Laboratory Animal Care International. The ethical underpinning of these experiments was formally acknowledged, having secured the approval of the Institutional Review Board of the Animal House and Use Committee at An-Najah National University (approval number: Med. June. 2023/9).
The study’s protagonists consisted of 18 healthy adult mice gracing the stage with a weight symphony ranging from 17 to 27 g. These cherished participants were thoughtfully accommodated in groups of three within the hospitable confines of the animal facility. In an overture of preparation, the mice were granted 7 days to acquaint themselves with the ambiance of the animal facility, enveloped within the embrace of controlled temperature conditions, a harmonious 25 ± 2 °C.
In the experiment, the mice were subjected to diabetes induction via an intraperitoneal (i.p.) injection of streptozotocin (STZ). […] In order to ascertain the induction of diabetes, the fasting blood glucose levels of the mice were assessed on the fourth day after the injection of STZ. […]
In this research, the fasting blood glucose levels for all groups were measured on the first day before the induction of diabetes using a streptozotocin (STZ) injection. […]

α-amylase [4] = target: T1, α-amylase; test: α-amylase inhibition, DNSA method; assay type: biochemical
Method: The experiment was conducted using the 3,5-dinitrosalicylic acid (DNSA) approach. Buffer solutions were prepared, containing 20 mm of both sodium phosphate monobasic and sodium phosphate dibasic, and were augmented with 6.7 mm sodium chloride (NaH2PO4 and Na2HPO4, each at 6.7 mm NaCl, pH 6.9). A beaker was filled partially with NaH2PO4 and NaCl solution and stirred magnetically, and the pH was meticulously calibrated using a specialized electrode. The desired pH of 6.9 was achieved by adding more NaH2PO4 and NaCl to the solution.
The stock solution consisted of synthesized molecules at a 1 mg/mL concentration, harmoniously blended with no less than 10% DMSO in a 1:100 dilution. This mixture was then united with a buffer composed of Na2HPO4/NaH2PO4 (0.02 M) and NaCl (0.006 M), maintaining a pH of 6.9. From this, working solutions were created at concentrations ranging from 0.1 to 100 µM. These comprised 0.01, 0.1, 0.5, 1, and 5 mL of the synthesized molecules diluted with the pH-adjusted buffer and brought to a total volume of 10 mL using VF (10 mL).
This transformative amalgam journeyed to attain a final volume of 100 mL, seamlessly infused with the phosphate buffer discussed earlier, harmonizing within a 100 mL volumetric flask (VF). Meanwhile, the starch solution, poised at a concentration of 1% (w/v), saw the suspension of 1000 mg of starch in 100 mL of distilled water, orchestrated with finesse within a 100 mL VF. This aqueous symphony unfolded in a temperate embrace of 37 °C within a water bath, occasionally stirring to deter any starch precipitation inklings.
The overture of this reaction was orchestrated by DNSA—a reactive virtuoso that commences its dance upon encountering reducing sugars, conjuring forth 3-amino-5-nitro salicylic acid, a spectral charmer at the wavelength of around 540 nm. The creation of DNSA itself, an artful process, saw the dissolution of 12 g of sodium potassium tartrate tetrahydrate within 8.0 mL of 2 M NaOH, further entwined with 20 mL of the enchanted 96 mm 3.5-dinitrosalicylic acid solution. Thus, the stage was set for this chemical ballet, where reactions waltzed, and absorbance painted a canvas of molecular magic. […]
The climax of this reaction narrative was unveiled as 200 μL of DNSA entered the stage, promptly followed by a vigorous boiling performance for 10 min, orchestrated at the harmonious temperature range of 85 to 90 °C. […] In a final crescendo, the resounding absorbance at 540 nm resounded as it was masterfully measured utilizing the UV-Visible spectrophotometer.
In order to produce the initial state, the blank canvas was used to substitute the synthesized chemicals, adding 200 μL of buffer. […] This captivating performance culminated with quantifying enzyme inhibitory activity expressed as a percentage of inhibition. […]

cancer cell lines = test: MTS cytotoxicity assay, range over cell lines; assay type: cell-based
Method: as §1

Compound | IC50 (HepG2; Homo sapiens, HepG2, 72 h) [µM] | IC50 (Hep3B; Homo sapiens, Hep3B) [µM] | IC50 (MCF-7; Homo sapiens, MCF7, 72 h) [µM] | IC50 (Hek293t normal cell line; Homo sapiens, HEK-293T) [µM] | IC50 (HeLa; Homo sapiens, HeLa) [µM] | IC50 (Caco-2; Homo sapiens, Caco-2, 72 h) [µM] | IC50 (LX-2; Homo sapiens, LX-2, 72 h) [µM] | also measured
O=c1[nH]cc(F)c(=O)[nH]1 [Compound 5-FU, reference compound] |  |  |  |  |  |  |  | IC50 (HepG2; 72 h): 4.07 ± 1.42 µM; IC50 (Hep3B): 5.11 ± 1.67 µM; IC50 (MCF-7; 72 h): 6.51 ± 1.82 µM; IC50 (HeLa): 7.79 ± 1.6 µM; IC50 (Caco-2; 72 h): 4.75 ± 1.71 µM; IC50 (LX-2; 72 h): 0.178 ± 0.11 µM
COc1cc(NC(=O)c2ccc3c(c2)OCO3)cc(OC)c1 [IIe, N-(3,5-dimethoxyphenyl)benzo[d][1,3]dioxole-5-carboxamide] | > 300 | > 300 | > 300 | > 300 | > 300 | > 300 | 183 ± 2 | IC50 (α-amylase [1]): 15 ± 3.52 µM
COc1cccc2c1C(=O)c1c(O)c3c(c(O)c1C2=O)C[C@@](O)(C(=O)CO)C[C@@H]3O[C@H]1C[C@H](N)[C@H](O)[C@H](C)O1 [DOX, reference compound] |  |  |  |  |  |  |  | IC50 (HepG2; 72 h): < 0.01 µM; IC50 (Hep3B): 0.025 ± 0.005 µM; IC50 (MCF-7; 72 h): 0.053 ± 0.009 µM; IC50 (Hek293t normal cell line): 0.038 ± 0.02 µM; IC50 (HeLa): < 0.01 µM; IC50 (Caco-2; 72 h): 0.024 ± 0.001 µM; IC50 (LX-2; 72 h): 0.21 ± 0.12 µM
N#C/C=C1/C=C(c2ccc(Br)cc2)N=C2Sc3ccccc3N21 [St.1] |  |  |  |  |  |  |  | IC50 (α-amylase [2]): 15.3 µM
O=C(Nc1cccc(C(F)(F)F)c1)c1ccc2c(c1)OCO2 [IIc, N-(3-(trifluoromethyl)phenyl)benzo[d][1,3]dioxole-5-carboxamide] | > 300 | > 300 | > 300 | > 150 | > 300 | > 300 | > 300 | IC50 (Hek293t normal cell line): 156 ± 2.98 µM; blood glucose level after treatment [3]: 173.8 mg/dL
COc1cc(NC(=O)c2ccc3c(c2)OCO3)cc(OC)c1OC [IIb, N-(3,4,5-trimethoxyphenyl)benzo[d][1,3]dioxole-5-carboxamide] | > 300 | > 300 | > 300 | > 300 | > 300 | > 300 | 96.6 ± 2.7 | 
COc1ccc(OC)c(NC(=O)Cc2ccc3c(c2)OCO3)c1 [Ic, 2-(benzo[d][1,3]dioxol-5-yl)-N-(2,5-dimethoxyphenyl)acetamide] | > 300 | > 300 | > 300 | 207 ± 2.59 | > 300 | > 300 | 209 ± 2.2 | IC50 (α-amylase [4]): 16.4 ± 1.58 µM
COc1cc(OC)cc(C(=O)c2ccc3c(c2)OCO3)c1 [St.3] |  |  |  |  |  |  |  | IC50 (α-amylase [2]; earlier work of the same team): 15 µM
COc1ccccc1Oc1ccc(NC(=O)c2ccc3c(c2)OCO3)cc1 [IId, N-(4-(2-methoxyphenoxy)phenyl)benzo[d][1,3]dioxole-5-carboxamide] | 55.3 ± 2.72 | 65.2 ± 2.53 | 55.8 ± 2.51 | > 300 | 26.6 ± 2.41 | > 300 | 31.4 ± 2.71 | IC50 (α-amylase [4]): 5.76 ± 1.92 µM; IC50 (cancer cell lines; Homo sapiens, Caco-2, four cancer cell lines / all cell lines except Caco-2): 26 to 65 µM; IC50 (cancer cell lines; four cancer cell lines / all cell lines except Caco-2): 26.6 to 65.2 µM
Oc1cc(O)cc(Oc2c(O)cc(Oc3c(O)cc(O)cc3O)cc2O)c1 [DDBT, 2-(4-(3,5-dihydroxyphenoxy)-3,5-dihydroxyphenoxy) benzene-1,3,5-triol] |  |  |  |  |  |  |  | IC50 (α-amylase [2]): 8.5 µM
O=C(Nc1ccccc1)c1ccc2c(c1)OCO2 [IIa, N-phenylbenzo[d][1,3]dioxole-5-carboxamide] | > 300 | > 300 | > 300 | > 150 | > 300 | > 300 | > 300 | IC50 (Hek293t normal cell line): > 300 µM; IC50 (α-amylase [4]): 0.85 ± 0.18 µM
COc1cc(NC(=O)Cc2ccc3c(c2)OCO3)c(OC)cc1Cl [Ia, 2-(benzo[d][1,3]dioxol-5-yl)-N-(4-chloro-2,5-dimethoxyphenyl)acetamide] | 169 ± 2.16 | 197 ± 1.99 | 124 ± 2.73 | > 300 | 43.6 ± 2.97 | > 300 | 70.6 ± 2.45 | IC50 (α-amylase [4]): 16.8 ± 1.55 µM
O=C(Cc1ccc2c(c1)OCO2)Nc1ccccc1 [Ib, 2-(benzo[d][1,3]dioxol-5-yl)-N-phenylacetamide] | > 300 | > 300 | > 300 | 269.2 ± 1.73 | > 300 | > 300 | 280.6 ± 2.33 | 
COC(=O)Cc1cc2c(cc1C(=O)c1ccccc1Br)OCO2 [St.2] |  |  |  |  |  |  |  | IC50 (α-amylase [2]; earlier work of the same team): 6.81 µM

— PMC10604990, “Characterization and Investigation of Novel Benzodioxol Derivatives as Antidiabetic Agents: An In Vitro and In Vivo Study in an Animal Model” (Biomolecules, 2023)
